A compilation of properties of binary mixtures (doi:10.1021/je500765m)

Experiment: xn = mol fraction of the nth substance listed
Details: 101 kPa, x2 = 0.0138

CCCC[n+]1ccn(C)c1.N#C[C-](C#N)C#N + O
Details | viscosity [mPa·s]
293.15 K | 32.77
298.15 K | 26.47
303.15 K | 21.7
308.15 K | 18.08
313.15 K | 15.3
318.15 K | 13.09
323.15 K | 11.32
338.15 K | 7.748
343.15 K | 6.933
353.15 K | 5.658
358.15 K | 5.155
363.15 K | 4.718
